These results are taken from patent publication US5283243A, “Piperidinoalkylbenzoxazine and piperidinoalkylbenzothiazine compounds, and medicaments containing them” (Kali-Chemie Pharma GmbH, priority 1990, dated 1994).

Data set [1] deals with Passive cutaneous anaphylaxis (PCA). In words: Inhibition of passive cutaneous anaphylaxis (PCA). Type of data set: in vivo, Sprague-Dawley rats. The conditions noted are these: Rattus norvegicus, 1 h; rats, 2 × 10^-5 mole/kg dose per os, one hour before ovalbumin challenge; read-out: % inhibition of Passive cutaneous anaphylaxis (PCA). How it is done: (§1) 1. Determining Inhibition of Passive Cutaneous Anaphylaxis (PCA) and Histamine-Induced Anaphylactoid Cutaneous Reaction
The PCA reaction is carried out following the methods described by Goose et al. (J.N. Immunology 16 (1969), 749) and by Martin et al. (Arch. Pharmacol. 316 (1981), 186).
The IgE-rich ovalbumin antiserum used in the test was obtained from immunized Brown-Norway rats. The were immunized with an intraperitoneal injection of a mixture of 100 μg of ovalbumin with a Bordetella pertussis suspension (Vaxicoq™, Manufactured by Institute Merieux, containing 5×10^9 organisms and 1.25 mg Al(OH)3). After 20 days the animals were re-immunized with a further intraperitoneal injection of a solution of 10 μg ovalbumin in 0.5 ml physiological saline solution. After a further four days the blood was removed from the animals and centrifuged. The resulting antiserum was stored at -20° C. until use.
(§2) The inhibition of the passive cutaneous anaphylaxis and of the anaphylactoid cutaneous reaction induced by histamine was determined as follows:
Sprague-Dawley rats having a body weight of 150-180 g were injected intradermally in one flank with 50 μl of a 1:75 dilution of the IgE-rich ovalbumin antiserum in physiological saline solution to passively sensitize them to ovalbumin.
24 hours after sensitization a solution of 8.25 mg/kg of ovalbumin and 26.4 mg/kg of a blue dye (Evans's Blue) was administered to the rats intravenously according to Martin et al. to trigger passive cutaneous anaphylaxis.
(§3) On the day of the experiment the test substances were dissolved in distilled water which contained 1 vol. % dimethylformamide and 1 vol. % of Tween™ 20 (=polyoxyethylene (20) sorbitan monolaurate). One hour before administration of the ovalbumin challenge, each animal was orally administered 2×10^-5 mole/kg of test substance in 0.5 ml of solution. For comparison purposes a control group received only the solvent.
(§4) The edematous anaphylactic (PCA) and anaphylactoid (histamine-induced) reactions caused by the stimulation of the intravenous ovalbumin injection, which manifested themselves by edema formation, swelling and exudation of blue dye, were evaluated 30 minutes after their initiation by the intravenous ovalbumin injection. This was done by visually determining the extent to which the blue dye emerged at the sites of edema formation. The percentage inhibition of anaphylactic and anaphylactoid reactions induced by the test substances in comparison with the reactions of the control animals not treated with any test substance was determined using comparison scales.
(§5) The results obtained using compounds of formula I according to the foregoing test methods are shown in the following Table A. The example numbers given for the compounds of formula I relate to the subsequent preparative examples.

The subject of data set [2] is 5-lipoxygenase (LTC4 release). In words: 5-Lipoxygenase inhibition: LTC4 release from zymosan-stimulated mouse peritoneal macrophage cells. Type of data set: cell-based. The conditions noted are these: Peritoneal macrophage cell; zymosan-stimulated mouse peritoneal macrophage cells, 10^-5 mole/l; read-out: In vitro % inhibition upon release of LTC4. The text has this:
5. In vitro Determination of Cyclooxygenase Inhibition and 5-Lipoxygenase Inhibition
After a cell is activated, arachidonic acid contained in cell membranes is metabolized in two ways. Leucotrienes, inter alia leucotriene C4, are formed due to the action of the enzyme 5-lipoxyqenase (=5-LO), and prostanoids are formed due to the action of the enzyme cyclooxygenase (=CO). In in vitro systems these metabolites are secreted from the cell.
To evaluate the cyclooxygenase-inhibiting and 5-lipoxygenase-inhibiting properties of the test substances, their inhibitory activity on the biosynthesis of the arachidonic acid derivatives leucotriene C4 (=LTC4) and 6-keto-prostaglandin F1α (=6-keto-PGF1 α) was determined in vitro on mouse peritoneal macrophage cells. For this purpose the LTC4 and 6-keto-PGF1 α contents of a mouse peritoneal macrophage cell culture medium were determined by zymosan stimulation as described by Scott et al. (J. Exp. Med. 152 (1980), 324-335) and by Fradin et al., (Prostaglandins, 33 (1987), 579-589).
A cell suspension containing peritoneal cells from male mice 8-10 weeks old was obtained in a known manner. A solution marketed under the designation RPMI 1640 (Manufactured by Gibco) was used as the cell culture medium, to which heparin (10 international units/ml) and antibiotics were added according to the procedure of Bonney et al. (Biochem. J. 176 (1978) 422-433). The cell suspension was adjusted to a cell concentration of 10^6 cells per ml and distributed uniformly on titer dishes containing 24 1-ml titer cells (wells). These were kept for two hours in a humidified incubator filled with air enriched with 7% CO2. Cells not adhering to the titer well walls were then removed by washing. The remaining macrophage cells adhering to the walls were incubated for about 12 hours in a suspension medium to which 0.1% of bovine serum albumin (BSA=Bovine Serum Albumin) was added. The suspension medium was then replaced by a Hanks salt solution (=Hanks Balanced Salt Solution=HBSS) with 10 mmoles of Hepes (=hydroxyethylpiperazinoethanesulfonic acid) to which a 0.1% strength solution of the test substances in aqueous, 1% strength dimethylformamide or only the solvent had been added. After 15 minutes the arachidonic acid metabolism was stimulated by adding […] of zymosan (=glycoprotein mixture isolated from cell walls of beer yeast, Saccharomyces cerevisiae, Manufactured by Sigma Chemical Co., Munich) per titre cell. After 2 hours samples of the respective supernatant liquid in each cell were examined for their 6-keto-PGF1α and LTC4 contents by an enzyme immunoassay (=EIA). This EIA is carried out following the method of Pradelles et al. (Analytical Chem. 57 (1985), 1170-1173). The determination of LTC4 and the determination of 6-keto-PGF1α were each carried out on suitable dilutions of the samples (1:50 to 1:250 for the LTC4 determination and 1:250 to 1:1,250 for the 6-keto-PGF1α determination) in comparison with a comparative scale. To determine the inhibiting effect of a 10^-5 molar concentration of the compounds, the amounts of reference eicosanoid were determined, and the inhibiting effect was calculated therefrom in % inhibition compared to the measurements of the zymosan controls.

For data set [3], the system named is Histamine-induced anaphylactoid reaction. In words: Inhibition of histamine-induced anaphylactoid cutaneous reaction. The format is in vivo, Sprague-Dawley rats. The conditions noted are these: Rattus norvegicus, 1 h; rats, 2 × 10^-5 mole/kg dose per os, one hour before challenge; read-out: % inhibition of Histamine-induced anaphylactoid reaction. As to the method: as §1, §2
To determine the histamine-induced anaphylactoid skin reaction, the animals are injected intradermally in the flank opposite to the antiserum administration with 50 μl of a physiological saline solution containing 0.8 mg/ml histamine directly before the intravenous injection of the solution containing the ovalbumin and the blue dye.
as §3, §4, §5

A further data set has as its system mice. As to the kind of experiment: Determination of minimum toxic dose. Particulars: mouse, in vivo, 300 mg/kg, 1440 min. Type of data set: in vivo. How it is done: 2. Determination of Minimum Toxic Dose
Maximum doses of 300 mg/kg of the test substance were administered orally to male mice weighing 20-25 g. The animals were observed carefully for 3 hours for toxicity symptoms. In addition, all symptoms and deaths were recorded over a period of 24 hours after administration. Associated symptoms were also observed and recorded. If death or severe toxic symptoms were observed, additional mice were administered increasingly lower doses. The lowest dose which produced death or severe toxic symptoms is given in the following Table B as the minimum toxic dose.

Regarding `O=C1Nc2ccccc2SC1CCCN1CCC(Nc2nc3ccccc3n2Cc2ccc(F)cc2)CC1` (stereo not shown) [Example 8], the inhibition in vivo at 20 µmol/kg in data set [1] and in data set [3] was 100% throughout. The inhibition at 10 µM in data set [2] was determined as 40%. For the same compound, the Minimum toxic dose with mice amounted to 300 mg/kg.

As a reminder, the inhibition is the relative decrease from the control value, in per cent.
